In ChEMBL document CHEMBL3991601, “The target landscape of clinical kinase drugs” (Science, 2017):
Activity calls are given as the source filed them.

target: Chromodomain-helicase-DNA-binding protein 4 (Homo sapiens, UniProt Q14839)
Also: in the data inactive means no Kd found up to 30 µM.

Chromodomain-helicase-DNA-binding protein 4, sequence (Q14839 whole entry): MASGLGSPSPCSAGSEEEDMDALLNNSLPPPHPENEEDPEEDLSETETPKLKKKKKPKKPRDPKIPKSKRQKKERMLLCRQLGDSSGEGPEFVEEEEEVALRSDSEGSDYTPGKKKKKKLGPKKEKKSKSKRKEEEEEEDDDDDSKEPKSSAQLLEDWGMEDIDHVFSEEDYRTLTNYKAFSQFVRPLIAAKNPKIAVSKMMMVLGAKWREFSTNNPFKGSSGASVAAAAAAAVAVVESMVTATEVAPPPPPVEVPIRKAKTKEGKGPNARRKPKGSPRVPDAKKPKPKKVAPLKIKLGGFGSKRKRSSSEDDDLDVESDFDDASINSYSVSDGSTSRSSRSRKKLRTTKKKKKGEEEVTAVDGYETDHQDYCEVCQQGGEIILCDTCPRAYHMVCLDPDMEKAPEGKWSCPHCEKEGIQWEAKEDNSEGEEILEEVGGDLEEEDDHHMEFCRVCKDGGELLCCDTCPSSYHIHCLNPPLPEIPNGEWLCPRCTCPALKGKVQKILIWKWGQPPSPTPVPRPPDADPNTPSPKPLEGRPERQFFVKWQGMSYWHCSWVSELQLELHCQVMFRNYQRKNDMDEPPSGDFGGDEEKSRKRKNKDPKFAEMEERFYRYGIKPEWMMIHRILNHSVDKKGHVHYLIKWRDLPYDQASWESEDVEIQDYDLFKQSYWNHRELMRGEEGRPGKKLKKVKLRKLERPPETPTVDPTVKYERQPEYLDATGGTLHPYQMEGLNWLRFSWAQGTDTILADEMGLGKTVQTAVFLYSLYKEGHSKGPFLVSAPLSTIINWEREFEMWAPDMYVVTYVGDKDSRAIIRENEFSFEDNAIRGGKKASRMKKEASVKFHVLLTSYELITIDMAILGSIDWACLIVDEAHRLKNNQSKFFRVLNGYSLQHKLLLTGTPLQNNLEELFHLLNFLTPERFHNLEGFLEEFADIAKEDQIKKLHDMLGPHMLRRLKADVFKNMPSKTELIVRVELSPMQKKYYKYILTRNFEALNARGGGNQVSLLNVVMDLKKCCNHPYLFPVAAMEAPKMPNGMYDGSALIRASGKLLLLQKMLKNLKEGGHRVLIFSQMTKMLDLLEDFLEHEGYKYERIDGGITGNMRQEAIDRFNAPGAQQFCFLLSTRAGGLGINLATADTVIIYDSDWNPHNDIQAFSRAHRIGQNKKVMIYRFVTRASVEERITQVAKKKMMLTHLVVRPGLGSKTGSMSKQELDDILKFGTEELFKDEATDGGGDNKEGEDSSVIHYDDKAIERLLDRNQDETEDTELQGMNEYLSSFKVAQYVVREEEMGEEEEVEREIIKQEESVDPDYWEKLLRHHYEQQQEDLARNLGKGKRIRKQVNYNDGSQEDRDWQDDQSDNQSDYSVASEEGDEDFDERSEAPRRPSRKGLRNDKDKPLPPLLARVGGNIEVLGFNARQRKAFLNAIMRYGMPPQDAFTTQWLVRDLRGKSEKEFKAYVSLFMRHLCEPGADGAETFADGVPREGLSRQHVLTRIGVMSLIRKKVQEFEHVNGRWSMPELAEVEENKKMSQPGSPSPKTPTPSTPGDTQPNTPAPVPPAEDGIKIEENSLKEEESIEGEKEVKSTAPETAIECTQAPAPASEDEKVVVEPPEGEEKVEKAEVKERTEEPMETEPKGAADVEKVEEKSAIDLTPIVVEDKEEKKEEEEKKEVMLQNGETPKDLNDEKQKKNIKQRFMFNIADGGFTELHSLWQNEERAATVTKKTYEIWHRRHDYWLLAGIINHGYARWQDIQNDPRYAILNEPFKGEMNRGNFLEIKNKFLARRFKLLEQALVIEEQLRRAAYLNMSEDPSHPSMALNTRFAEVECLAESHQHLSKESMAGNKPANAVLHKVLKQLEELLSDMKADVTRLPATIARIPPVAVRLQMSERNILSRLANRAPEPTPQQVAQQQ

Compound	Kd
CCn1c(-c2nonc2N)nc2c(C#CC(C)(C)O)ncc(OC[C@H]3CCCNC3)c21 [GSK-690693]	> 30 µM (inactive)
CC[C@H](Nc1ncnc2[nH]cnc12)c1nc2cccc(F)c2c(=O)n1-c1ccccc1 [IDELALISIB]	> 30 µM (inactive)
Cn1cc(-c2ccc3nnc(C(F)(F)c4ccc5ncccc5c4)n3n2)cn1 [JNJ-38877605]	> 30 µM (inactive)

target: Protein kinase C alpha type (Homo sapiens, UniProt P17252)

Compound	Kd
CCn1c(-c2nonc2N)nc2c(C#CC(C)(C)O)ncc(OC[C@H]3CCCNC3)c21 [GSK-690693]	0.566 µM (active)
CC[C@H](Nc1ncnc2[nH]cnc12)c1nc2cccc(F)c2c(=O)n1-c1ccccc1 [IDELALISIB]	> 30 µM (inactive)
Cn1cc(-c2ccc3nnc(C(F)(F)c4ccc5ncccc5c4)n3n2)cn1 [JNJ-38877605]	> 30 µM (inactive)

target: Myosin-14 (Homo sapiens, UniProt Q7Z406)

Compound	Kd
CCn1c(-c2nonc2N)nc2c(C#CC(C)(C)O)ncc(OC[C@H]3CCCNC3)c21 [GSK-690693]	> 30 µM (inactive)
Cn1cc(-c2ccc3nnc(C(F)(F)c4ccc5ncccc5c4)n3n2)cn1 [JNJ-38877605]	> 30 µM (inactive)

target: Ephrin type-A receptor 2 (Homo sapiens, UniProt P29317)

Compound	Kd
CC[C@H](Nc1ncnc2[nH]cnc12)c1nc2cccc(F)c2c(=O)n1-c1ccccc1 [IDELALISIB]	> 30 µM (inactive)
Cn1cc(-c2ccc3nnc(C(F)(F)c4ccc5ncccc5c4)n3n2)cn1 [JNJ-38877605]	> 30 µM (inactive)

target: Inosine-5'-monophosphate dehydrogenase 2 (Homo sapiens, UniProt P12268)

Compound	Kd
CCn1c(-c2nonc2N)nc2c(C#CC(C)(C)O)ncc(OC[C@H]3CCCNC3)c21 [GSK-690693]	> 30 µM (inactive)
CC[C@H](Nc1ncnc2[nH]cnc12)c1nc2cccc(F)c2c(=O)n1-c1ccccc1 [IDELALISIB]	> 30 µM (inactive)

target: Wee1-like protein kinase (Homo sapiens, UniProt P30291)

Compound	Kd
CC[C@H](Nc1ncnc2[nH]cnc12)c1nc2cccc(F)c2c(=O)n1-c1ccccc1 [IDELALISIB]	> 30 µM (inactive)
Cn1cc(-c2ccc3nnc(C(F)(F)c4ccc5ncccc5c4)n3n2)cn1 [JNJ-38877605]	> 30 µM (inactive)

target: T1, Serine/threonine-protein kinase STK11 (Homo sapiens, UniProt Q15831)
T1 sequence (Q15831 whole entry): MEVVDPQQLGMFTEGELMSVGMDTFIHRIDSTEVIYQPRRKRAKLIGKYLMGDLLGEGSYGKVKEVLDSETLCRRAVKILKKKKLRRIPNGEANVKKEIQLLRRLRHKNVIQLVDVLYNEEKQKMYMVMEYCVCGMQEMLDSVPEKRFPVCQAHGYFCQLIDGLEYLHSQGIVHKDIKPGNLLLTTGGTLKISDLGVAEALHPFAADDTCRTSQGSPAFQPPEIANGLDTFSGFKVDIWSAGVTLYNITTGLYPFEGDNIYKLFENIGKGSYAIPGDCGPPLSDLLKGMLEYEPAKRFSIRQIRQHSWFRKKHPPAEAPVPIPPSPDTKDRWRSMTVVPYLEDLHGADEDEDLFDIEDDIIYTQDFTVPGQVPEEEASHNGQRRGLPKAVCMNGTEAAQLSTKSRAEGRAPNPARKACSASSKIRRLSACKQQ

Compound	Kd
CC[C@H](Nc1ncnc2[nH]cnc12)c1nc2cccc(F)c2c(=O)n1-c1ccccc1 [IDELALISIB]	> 30 µM (inactive)
Cn1cc(-c2ccc3nnc(C(F)(F)c4ccc5ncccc5c4)n3n2)cn1 [JNJ-38877605]	> 30 µM (inactive)

target: T2, Phenylalanine--tRNA ligase beta subunit (Homo sapiens, UniProt Q9NSD9)
T2 sequence (Q9NSD9 whole entry): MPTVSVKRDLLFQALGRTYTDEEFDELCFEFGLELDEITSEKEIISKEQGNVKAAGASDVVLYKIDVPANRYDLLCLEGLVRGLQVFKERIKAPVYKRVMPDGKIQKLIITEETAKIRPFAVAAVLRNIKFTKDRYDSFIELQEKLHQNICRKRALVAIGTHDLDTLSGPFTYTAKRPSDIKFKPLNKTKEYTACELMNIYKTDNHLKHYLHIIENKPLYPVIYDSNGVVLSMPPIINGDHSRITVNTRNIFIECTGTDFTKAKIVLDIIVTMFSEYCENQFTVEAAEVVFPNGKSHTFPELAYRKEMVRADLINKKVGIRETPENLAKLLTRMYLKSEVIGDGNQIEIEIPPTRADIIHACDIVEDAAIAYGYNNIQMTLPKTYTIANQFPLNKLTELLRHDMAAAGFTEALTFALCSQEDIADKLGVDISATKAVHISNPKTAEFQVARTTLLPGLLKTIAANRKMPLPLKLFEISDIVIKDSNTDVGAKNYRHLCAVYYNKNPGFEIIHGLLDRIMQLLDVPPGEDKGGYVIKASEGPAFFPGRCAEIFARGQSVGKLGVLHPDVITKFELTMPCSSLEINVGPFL

Compound	Kd
CCn1c(-c2nonc2N)nc2c(C#CC(C)(C)O)ncc(OC[C@H]3CCCNC3)c21 [GSK-690693]	> 30 µM (inactive)
CC[C@H](Nc1ncnc2[nH]cnc12)c1nc2cccc(F)c2c(=O)n1-c1ccccc1 [IDELALISIB]	> 30 µM (inactive)
Cn1cc(-c2ccc3nnc(C(F)(F)c4ccc5ncccc5c4)n3n2)cn1 [JNJ-38877605]	> 30 µM (inactive)

target: Adenosine kinase (Homo sapiens, UniProt P55263)
Sequence (P55263 whole entry): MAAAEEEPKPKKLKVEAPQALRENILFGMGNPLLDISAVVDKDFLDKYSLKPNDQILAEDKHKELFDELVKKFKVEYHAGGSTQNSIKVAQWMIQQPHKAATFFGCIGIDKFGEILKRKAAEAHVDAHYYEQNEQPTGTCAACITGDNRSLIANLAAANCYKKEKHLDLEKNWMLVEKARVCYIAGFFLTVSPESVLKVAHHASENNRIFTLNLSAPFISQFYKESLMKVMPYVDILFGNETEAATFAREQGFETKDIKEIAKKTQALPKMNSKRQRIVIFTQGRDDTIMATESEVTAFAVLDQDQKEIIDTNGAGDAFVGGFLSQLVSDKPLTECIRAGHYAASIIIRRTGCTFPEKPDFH

Compound	Kd
CCn1c(-c2nonc2N)nc2c(C#CC(C)(C)O)ncc(OC[C@H]3CCCNC3)c21 [GSK-690693]	> 30 µM (inactive)
CC[C@H](Nc1ncnc2[nH]cnc12)c1nc2cccc(F)c2c(=O)n1-c1ccccc1 [IDELALISIB]	> 30 µM (inactive)
Cn1cc(-c2ccc3nnc(C(F)(F)c4ccc5ncccc5c4)n3n2)cn1 [JNJ-38877605]	> 30 µM (inactive)

target: Putative heat shock protein HSP 90-beta 2 (Homo sapiens, UniProt Q58FF8)
Sequence (Q58FF8 whole entry): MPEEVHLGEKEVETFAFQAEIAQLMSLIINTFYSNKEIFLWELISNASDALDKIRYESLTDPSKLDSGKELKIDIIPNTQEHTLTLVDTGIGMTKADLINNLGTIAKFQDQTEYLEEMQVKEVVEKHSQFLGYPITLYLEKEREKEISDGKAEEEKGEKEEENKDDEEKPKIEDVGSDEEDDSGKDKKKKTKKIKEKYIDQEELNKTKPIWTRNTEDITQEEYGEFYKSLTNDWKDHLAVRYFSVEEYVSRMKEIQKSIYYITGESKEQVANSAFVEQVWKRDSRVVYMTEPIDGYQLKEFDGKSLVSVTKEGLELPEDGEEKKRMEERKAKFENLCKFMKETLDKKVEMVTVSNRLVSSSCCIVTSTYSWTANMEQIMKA

Compound	Kd
CCn1c(-c2nonc2N)nc2c(C#CC(C)(C)O)ncc(OC[C@H]3CCCNC3)c21 [GSK-690693]	> 30 µM (inactive)
CC[C@H](Nc1ncnc2[nH]cnc12)c1nc2cccc(F)c2c(=O)n1-c1ccccc1 [IDELALISIB]	> 30 µM (inactive)
Cn1cc(-c2ccc3nnc(C(F)(F)c4ccc5ncccc5c4)n3n2)cn1 [JNJ-38877605]	> 30 µM (inactive)

target: 26S proteasome regulatory subunit 6B (Homo sapiens, UniProt P43686)
Sequence (P43686 whole entry): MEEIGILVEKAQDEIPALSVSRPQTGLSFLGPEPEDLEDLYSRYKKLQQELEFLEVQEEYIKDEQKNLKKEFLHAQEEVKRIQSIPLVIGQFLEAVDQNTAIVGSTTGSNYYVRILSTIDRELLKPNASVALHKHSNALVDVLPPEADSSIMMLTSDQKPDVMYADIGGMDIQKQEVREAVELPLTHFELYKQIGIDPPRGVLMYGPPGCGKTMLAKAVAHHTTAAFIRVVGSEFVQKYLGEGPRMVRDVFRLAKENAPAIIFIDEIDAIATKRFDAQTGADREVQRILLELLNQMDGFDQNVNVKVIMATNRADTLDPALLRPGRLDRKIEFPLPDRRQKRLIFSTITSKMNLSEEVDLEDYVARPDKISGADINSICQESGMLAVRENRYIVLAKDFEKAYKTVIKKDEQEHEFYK

Compound	Kd
CCn1c(-c2nonc2N)nc2c(C#CC(C)(C)O)ncc(OC[C@H]3CCCNC3)c21 [GSK-690693]	> 30 µM (inactive)
CC[C@H](Nc1ncnc2[nH]cnc12)c1nc2cccc(F)c2c(=O)n1-c1ccccc1 [IDELALISIB]	> 30 µM (inactive)
Cn1cc(-c2ccc3nnc(C(F)(F)c4ccc5ncccc5c4)n3n2)cn1 [JNJ-38877605]	> 30 µM (inactive)

target: T3, Tyrosine--tRNA ligase, cytoplasmic (Homo sapiens, UniProt P54577)
T3 sequence (P54577 whole entry): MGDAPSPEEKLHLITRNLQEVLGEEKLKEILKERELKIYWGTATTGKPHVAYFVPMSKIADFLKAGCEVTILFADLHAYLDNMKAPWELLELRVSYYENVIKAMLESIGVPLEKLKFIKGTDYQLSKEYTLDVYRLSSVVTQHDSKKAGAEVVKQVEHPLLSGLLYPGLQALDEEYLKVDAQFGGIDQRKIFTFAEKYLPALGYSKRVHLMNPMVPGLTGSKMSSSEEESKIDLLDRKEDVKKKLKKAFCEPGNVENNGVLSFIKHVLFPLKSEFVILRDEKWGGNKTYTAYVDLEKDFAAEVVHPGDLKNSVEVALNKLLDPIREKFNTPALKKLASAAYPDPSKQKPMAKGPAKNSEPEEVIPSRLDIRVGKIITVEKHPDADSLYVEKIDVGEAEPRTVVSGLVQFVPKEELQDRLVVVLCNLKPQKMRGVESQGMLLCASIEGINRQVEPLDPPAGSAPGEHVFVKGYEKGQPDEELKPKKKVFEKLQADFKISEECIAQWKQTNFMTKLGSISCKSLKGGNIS

Compound	Kd
CCn1c(-c2nonc2N)nc2c(C#CC(C)(C)O)ncc(OC[C@H]3CCCNC3)c21 [GSK-690693]	> 30 µM (inactive)
CC[C@H](Nc1ncnc2[nH]cnc12)c1nc2cccc(F)c2c(=O)n1-c1ccccc1 [IDELALISIB]	> 30 µM (inactive)
Cn1cc(-c2ccc3nnc(C(F)(F)c4ccc5ncccc5c4)n3n2)cn1 [JNJ-38877605]	> 30 µM (inactive)

target: T4, Electron transfer flavoprotein subunit beta (Homo sapiens, UniProt P38117)
T4 sequence (P38117 whole entry): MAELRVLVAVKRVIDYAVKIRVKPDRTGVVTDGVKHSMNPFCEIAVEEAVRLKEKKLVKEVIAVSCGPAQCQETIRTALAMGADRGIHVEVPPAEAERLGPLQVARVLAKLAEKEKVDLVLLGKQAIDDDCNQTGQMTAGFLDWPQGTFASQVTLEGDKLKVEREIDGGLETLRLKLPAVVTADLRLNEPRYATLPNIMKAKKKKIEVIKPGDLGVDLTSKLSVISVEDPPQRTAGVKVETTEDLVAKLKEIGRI

Compound	Kd
CCn1c(-c2nonc2N)nc2c(C#CC(C)(C)O)ncc(OC[C@H]3CCCNC3)c21 [GSK-690693]	> 30 µM (inactive)
CC[C@H](Nc1ncnc2[nH]cnc12)c1nc2cccc(F)c2c(=O)n1-c1ccccc1 [IDELALISIB]	> 30 µM (inactive)
Cn1cc(-c2ccc3nnc(C(F)(F)c4ccc5ncccc5c4)n3n2)cn1 [JNJ-38877605]	> 30 µM (inactive)

target: Mitogen-activated protein kinase kinase kinase 4 (Homo sapiens, UniProt Q9Y6R4)

Compound	Kd
CC[C@H](Nc1ncnc2[nH]cnc12)c1nc2cccc(F)c2c(=O)n1-c1ccccc1 [IDELALISIB]	> 30 µM (inactive)
Cn1cc(-c2ccc3nnc(C(F)(F)c4ccc5ncccc5c4)n3n2)cn1 [JNJ-38877605]	> 30 µM (inactive)

target: Interleukin-1 receptor-associated kinase 1 (Homo sapiens, UniProt P51617)
Sequence (P51617 whole entry): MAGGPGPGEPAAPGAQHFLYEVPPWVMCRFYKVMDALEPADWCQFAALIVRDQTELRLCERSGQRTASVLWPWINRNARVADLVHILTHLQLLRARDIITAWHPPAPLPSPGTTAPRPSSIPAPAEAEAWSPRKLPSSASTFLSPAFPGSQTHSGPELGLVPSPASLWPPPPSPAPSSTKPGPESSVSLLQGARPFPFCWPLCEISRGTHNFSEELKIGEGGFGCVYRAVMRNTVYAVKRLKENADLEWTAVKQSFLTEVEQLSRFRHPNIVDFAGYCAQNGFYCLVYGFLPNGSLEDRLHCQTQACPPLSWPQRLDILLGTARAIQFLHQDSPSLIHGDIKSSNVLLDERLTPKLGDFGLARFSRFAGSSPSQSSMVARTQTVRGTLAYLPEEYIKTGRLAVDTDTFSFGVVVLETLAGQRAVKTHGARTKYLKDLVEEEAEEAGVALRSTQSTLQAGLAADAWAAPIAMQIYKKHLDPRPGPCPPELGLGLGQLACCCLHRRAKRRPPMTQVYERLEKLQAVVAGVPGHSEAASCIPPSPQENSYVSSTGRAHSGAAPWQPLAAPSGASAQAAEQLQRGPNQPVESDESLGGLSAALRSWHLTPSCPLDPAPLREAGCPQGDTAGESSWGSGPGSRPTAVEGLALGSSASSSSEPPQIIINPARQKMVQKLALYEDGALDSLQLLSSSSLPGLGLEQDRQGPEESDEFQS

Compound	Kd
CC[C@H](Nc1ncnc2[nH]cnc12)c1nc2cccc(F)c2c(=O)n1-c1ccccc1 [IDELALISIB]	> 30 µM (inactive)
Cn1cc(-c2ccc3nnc(C(F)(F)c4ccc5ncccc5c4)n3n2)cn1 [JNJ-38877605]	> 30 µM (inactive)
